The structures appear in SMILES notation.

For one test, the target named is T1, Recombinant human liver GK1 (GST-GK) (Homo sapiens, UniProt P35557).
T1 construct: made in house; host or cells: E. coli
T1 sequence (P35557 1-466 isoform P35557-2): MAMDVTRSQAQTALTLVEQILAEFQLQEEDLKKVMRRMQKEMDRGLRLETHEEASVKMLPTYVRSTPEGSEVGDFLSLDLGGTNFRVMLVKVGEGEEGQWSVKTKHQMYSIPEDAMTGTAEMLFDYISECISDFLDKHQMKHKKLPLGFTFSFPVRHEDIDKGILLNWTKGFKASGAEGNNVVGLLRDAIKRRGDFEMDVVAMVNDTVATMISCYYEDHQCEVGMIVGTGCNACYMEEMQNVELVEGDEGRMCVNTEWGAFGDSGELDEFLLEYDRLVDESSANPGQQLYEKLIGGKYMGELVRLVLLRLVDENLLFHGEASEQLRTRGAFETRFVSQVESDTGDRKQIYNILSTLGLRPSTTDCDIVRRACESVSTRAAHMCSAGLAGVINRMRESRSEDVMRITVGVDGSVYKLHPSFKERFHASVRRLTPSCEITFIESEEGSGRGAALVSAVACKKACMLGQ
Kind of test: Glucokinase in vitro assay (G6PDH-coupled NADH generation, OD340). Type of test: biochemical. The following applies: 30 uM test compound, 5 mM D-glucose. An outline of the steps:
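Activation readout is SC1.5, the activator concentration raising GK rate (OD340/min) 50% above 10% DMSO controls. The coupled reaction used GST-GK1 from E. coli, 5 mM glucose, 1 mM ATP, 1.8 mM NAD and 25 mM Hepes pH 7.1 at 30° C. Enzyme was added after a 10 min compound pre-incubation.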
Turning to `Cn1nc(NC(=O)C(CC2CCCC2)n2ncc(Oc3ccccc3C(F)(F)F)cc2=O)cc1C(F)(F)F` (stereo not drawn) [Example 45, 3-Cyclopentyl-N-(1-methyl-5-trifluoromethyl-1H-pyrazol-3-yl)-2-[6-oxo-4-(2-trifluoromethyl-phenoxy)-6H-pyridazin-1-yl]-propionamide], the “fold activation @ 30 uM” value came to 1.15 fold.

With `CC(C)CC(C(=O)Nc1ccn(C[C@@H](O)CO)n1)n1ncc(Nc2ccccc2Cl)cc1=O` (stereo partly drawn) [Example 122, 2-[4-(2-Chloro-phenylamino)-6-oxo-6H-pyridazin-1-yl]-4-methyl-pentanoic acid [1-((R)-2,3-dihydroxy-propyl)-1H-pyrazol-3-yl]-amide], the “fold activation @ 30 uM” value was found to be 1.36 fold.

As for `O=C(Nc1ccn(C[C@@H](O)CO)n1)C(CC1CCCC1)n1ncc(OC2CCC2)cc1=O` (stereo partly drawn) [Example 94, 2-(4-Cyclobutoxy-6-oxo-6H-pyridazin-1-yl)-3-cyclopentyl-N-[1-((R)-2,3-dihydroxy-propyl)-1H-pyrazol-3-yl]-propionamide], the “fold activation @ 30 uM” value worked out at 1.33 fold.

The test is the same for the next values; noted with them: 5 mM D-glucose, 30° C., pH 7.1, 10% DMSO.
In the case of `Cn1nc(NC(=O)C(CC2CCCC2)n2ncc(Oc3ccccc3C(F)(F)F)cc2=O)cc1C(F)(F)F` (stereo not drawn) [Example 45, 3-Cyclopentyl-N-(1-methyl-5-trifluoromethyl-1H-pyrazol-3-yl)-2-[6-oxo-4-(2-trifluoromethyl-phenoxy)-6H-pyridazin-1-yl]-propionamide], the “SC1.5 average (concentration of activator that produced a 50% increase in the activity of GK)” value was above 30 µM.

Turning to `CC(C)CC(C(=O)Nc1ccn(C[C@@H](O)CO)n1)n1ncc(Nc2ccccc2Cl)cc1=O` (stereo partly drawn) [Example 122, 2-[4-(2-Chloro-phenylamino)-6-oxo-6H-pyridazin-1-yl]-4-methyl-pentanoic acid [1-((R)-2,3-dihydroxy-propyl)-1H-pyrazol-3-yl]-amide], the “SC1.5 average (concentration of activator that produced a 50% increase in the activity of GK)” value was above 30 µM.

In the case of `CC(C)CC(C(=O)Nc1ccn(C[C@@H](O)CO)n1)n1ncc(Oc2c(F)cccc2F)cc1=O` (stereo partly drawn) [Example 61, 2-[4-(2,6-Difluoro-phenoxy)-6-oxo-6H-pyridazin-1-yl]-4-methyl-pentanoic acid [1-((R)-2,3-dihydroxy-propyl)-1H-pyrazol-3-yl]-amide], the “SC1.5 average (concentration of activator that produced a 50% increase in the activity of GK)” value was 0.383 µM.

Consider `CC(C)(O)Cn1ccc(NC(=O)C(CC2CCOCC2)n2ncc(Oc3ccccc3Cl)cc2=O)n1` (stereo not drawn) [Example 135, 2-[4-(2-Chloro-phenoxy)-6-oxo-6H-pyridazin-1-yl]-N-[1-(2-hydroxy-2-methyl-propyl)-1H-pyrazol-3-yl]-3-(tetrahydro-pyran-4-yl)-propionamide], for which the “SC1.5 average (concentration of activator that produced a 50% increase in the activity of GK)” value was found to be 0.235 µM.

On to `CC(C)CC(C(=O)Nc1ccn(CCO)n1)n1ncc(Oc2c(F)cccc2F)cc1=O` (stereo not drawn) [Example 59, 2-[4-(2,6-Difluoro-phenoxy)-6-oxo-6H-pyridazin-1-yl]-4-methyl-pentanoic acid [1-(2-hydroxy-ethyl)-1H-pyrazol-3-yl]-amide], for which the “SC1.5 average (concentration of activator that produced a 50% increase in the activity of GK)” value was 0.576 µM.

`Cc1nsc(NC(=O)C(CC2CCCC2)n2ncc(Oc3ccccc3)cc2=O)n1` (stereo not drawn) [Example 3, 3-Cyclopentyl-N-(3-methyl-[1,2,4]thiadiazol-5-yl)-2-(6-oxo-4-phenoxy-6H-pyridazin-1-yl)-propionamide]: the “SC1.5 average (concentration of activator that produced a 50% increase in the activity of GK)” value was 2.07 µM.

Regarding `CC(C)(O)Cn1ccc(NC(=O)[C@H](CC2CCCC2)n2ncc(Oc3ccc(F)cc3F)cc2=O)n1` [Example 32A, (S)-3-Cyclopentyl-2-[4-(2,4-difluoro-phenoxy)-6-oxo-6H-pyridazin-1-yl]-N-[1-(2-hydroxy-2-methyl-propyl)-1H-pyrazol-3-yl]-propionamide], the “SC1.5 average (concentration of activator that produced a 50% increase in the activity of GK)” value is 0.502 µM.

As for `CC(C)(O)Cn1ccc(NC(=O)[C@@H](CC2CCCC2)n2ncc(Oc3ccccc3F)cc2=O)n1` [Example 19B, (R)-3-Cyclopentyl-2-[4-(2-fluoro-phenoxy)-6-oxo-6H-pyridazin-1-yl]-N-[1-(2-hydroxy-2-methyl-propyl)-1H-pyrazol-3-yl]-propionamide], the “SC1.5 average (concentration of activator that produced a 50% increase in the activity of GK)” value came out at 3.411 µM.

Take `CC(C)(O)Cn1ccc(NC(=O)C(CC2CCCC2)n2ncc3ccccc3c2=O)n1` (stereo not drawn) [Example 84, 3-Cyclopentyl-N-[1-(2-hydroxy-2-methyl-propyl)-1H-pyrazol-3-yl]-2-(1-oxo-1H-phthalazin-2-yl)-propionamide]: the “SC1.5 average (concentration of activator that produced a 50% increase in the activity of GK)” value is 15.983 µM.

With `O=C(Nc1cnc(C(O)CO)cn1)C(CC1CCCC1)n1ncc(Oc2c(F)cccc2F)cc1=O` (stereo in doubt) [Example 106, 3-Cyclopentyl-2-[4-(2,6-difluoro-phenoxy)-6-oxo-6H-pyridazin-1-yl]-N-[5-((R)-1,2-dihydroxy-ethyl)-pyrazin-2-yl]-propionamide], the “SC1.5 average (concentration of activator that produced a 50% increase in the activity of GK)” value turned out to be 0.082 µM.

Consider `CC(C)(O)Cn1ccc(NC(=O)C(CC2CCCC2)n2ncc(Oc3ccccc3C(=O)N3CCCC3)cc2=O)n1` (stereo not drawn) [Example 41, 3-Cyclopentyl-N-[1-(2-hydroxy-2-methyl-propyl)-1H-pyrazol-3-yl]-2-{6-oxo-4-[2-(pyrrolidine-1-carbonyl)-phenoxy]-6H-pyridazin-1-yl}-propionamide], for which the “SC1.5 average (concentration of activator that produced a 50% increase in the activity of GK)” value was 8.414 µM.

For `COc1ccc(Oc2cnn(C(CC3CCCCC3)C(=O)Nc3ccn(CC(C)(C)O)n3)c(=O)c2)c(Cl)c1` (stereo not drawn) [Example 118, 2-[4-(2-Chloro-4-methoxy-phenoxy)-6-oxo-6H-pyridazin-1-yl]-3-cyclohexyl-N-[1-(2-hydroxy-2-methyl-propyl)-1H-pyrazol-3-yl]-propionamide], the “SC1.5 average (concentration of activator that produced a 50% increase in the activity of GK)” value was determined as 0.237 µM.

Consider `O=C(Nc1ccn(C[C@@H](O)CO)n1)C(CC1CCCC1)n1ncc(OC2CCC2)cc1=O` (stereo partly drawn) [Example 94, 2-(4-Cyclobutoxy-6-oxo-6H-pyridazin-1-yl)-3-cyclopentyl-N-[1-((R)-2,3-dihydroxy-propyl)-1H-pyrazol-3-yl]-propionamide], for which the “SC1.5 average (concentration of activator that produced a 50% increase in the activity of GK)” value is above 30 µM.

Regarding `Cc1ccccc1Oc1cnn([C@H](CC2CCCC2)C(=O)Nc2ccc(C(=O)O)cn2)c(=O)c1` [Example 74B, 6-[(R)-3-Cyclopentyl-2-(6-oxo-4-o-tolyloxy-6H-pyridazin-1-yl)-propionylamino]-nicotinic acid], the “SC1.5 average (concentration of activator that produced a 50% increase in the activity of GK)” value is 0.245 µM.

With `COC(=O)c1ccc(NC(=O)C(CC2CCCC2)n2ncc(Oc3c(F)cccc3F)cc2=O)nc1` (stereo not drawn) [Example 68, 6-{3-Cyclopentyl-2-[4-(2,6-difluoro-phenoxy)-6-oxo-6H-pyridazin-1-yl]-propionylamino}-nicotinic acid methyl ester], the “SC1.5 average (concentration of activator that produced a 50% increase in the activity of GK)” value is 0.013 µM.

In the case of `CC(C)(O)Cn1ccc(NC(=O)C(CC2CCCC2)n2ncc(Oc3ccc(C(F)(F)F)cc3)cc2=O)n1` (stereo not drawn) [Example 5, 3-Cyclopentyl-N-[1-(2-hydroxy-2-methyl-propyl)-1H-pyrazol-3-yl]-2-[6-oxo-4-(4-trifluoromethyl-phenoxy)-6H-pyridazin-1-yl]-propionamide], the “SC1.5 average (concentration of activator that produced a 50% increase in the activity of GK)” value came out at 2.267 µM.

Consider `O=C(Nc1ccn(C[C@@H](O)CO)n1)C(CC1CCOCC1)n1ncc(Oc2c(F)cccc2F)cc1=O` (stereo partly drawn) [Example 62, 2-[4-(2,6-difluoro-phenoxy)-6-oxo-6H-pyridazin-1-yl]-N-[1-((R)-2,3-dihydroxy-propyl)-1H-pyrazol-3-yl]-3-(tetrahydro-pyran-4-yl)-propionamide], for which the “SC1.5 average (concentration of activator that produced a 50% increase in the activity of GK)” value turned out to be 0.373 µM.

Regarding `COc1cccc(Oc2cnn(C(CC3CCCC3)C(=O)Nc3ccn(CC(C)(C)O)n3)c(=O)c2)c1` (stereo not drawn) [Example 7, 3-Cyclopentyl-N-[1-(2-hydroxy-2-methyl-propyl)-1H-pyrazol-3-yl]-2-[4-(3-methoxy-phenoxy)-6-oxo-6H-pyridazin-1-yl]-propionamide], the “SC1.5 average (concentration of activator that produced a 50% increase in the activity of GK)” value turned out to be 0.428 µM.

Consider `O=C(Nc1nccs1)C(CC1CCCC1)n1ncc2ccccc2c1=O` (stereo not drawn) [Example 83, 3-Cyclopentyl-2-(1-oxo-1H-phthalazin-2-yl)-N-thiazol-2-yl-propionamide], for which the “SC1.5 average (concentration of activator that produced a 50% increase in the activity of GK)” value is 8.783 µM.

Consider `O=C(Nc1ccn(C[C@@H](O)CO)n1)C(CC1CCCC1)n1ncc(Oc2nccc(C(F)(F)F)n2)cc1=O` (stereo partly drawn) [Example 115, 3-Cyclopentyl-N-[1-((R)-2,3-dihydroxy-propyl)-1H-pyrazol-3-yl]-2-[6-oxo-4-(4-trifluoromethyl-pyrimidin-2-yloxy)-6H-pyridazin-1-yl]-propionamide], for which the “SC1.5 average (concentration of activator that produced a 50% increase in the activity of GK)” value amounted to 0.376 µM.

`CC(C)(O)Cn1ccc(NC(=O)C(CC2CCCC2)n2ncccc2=O)n1` (stereo not drawn) [Example 78, 3-Cyclopentyl-N-[1-(2-hydroxy-2-methyl-propyl)-1H-pyrazol-3-yl]-2-(6-oxo-6H-pyridazin-1-yl)-propionamide]: the “SC1.5 average (concentration of activator that produced a 50% increase in the activity of GK)” value came to 14.436 µM.

As for `CC(C)(O)Cn1ccc(NC(=O)C(CC2CCCC2)n2ncc(Oc3ccccc3)cc2=O)n1` (stereo not drawn) [Example 1, 3-Cyclopentyl-N-[1-(2-hydroxy-2-methyl-propyl)-1H-pyrazol-3-yl]-2-(6-oxo-4-phenoxy-6H-pyridazin-1-yl)-propionamide], the “SC1.5 average (concentration of activator that produced a 50% increase in the activity of GK)” value is 0.707 µM.

For `O=C(O)c1ccc(NC(=O)[C@H](CC2CCCC2)n2ncc(Oc3c(F)cccc3F)cc2=O)nc1` [Example 73A, 6-{(S)-3-Cyclopentyl-2-[4-(2,6-difluoro-phenoxy)-6-oxo-6H-pyridazin-1-yl]-propionylamino}-nicotinic acid], the “SC1.5 average (concentration of activator that produced a 50% increase in the activity of GK)” value amounted to 0.012 µM.

For the compound `O=C(Nc1ccn(C[C@@H](O)CO)n1)C(CC1CCCC1)n1ncc(Oc2cccc(Cl)c2Cl)cc1=O` (stereo partly drawn) [Example 92, 3-Cyclopentyl-2-[4-(2,3-dichloro-phenoxy)-6-oxo-6H-pyridazin-1-yl]-N-[1-((R)-2,3-dihydroxy-propyl)-1H-pyrazol-3-yl]-propionamide], the “SC1.5 average (concentration of activator that produced a 50% increase in the activity of GK)” value was determined as 0.135 µM.

Values taken from patent publication US8258134B2, “Pyridazinone glucokinase activators” (Hoffmann-La Roche Inc., priority 2008, dated 2012).
